pKi: −log10 of the molar value. Values joined by “and” are separate entries in the source; they are usually repeats but may differ in a detail not shown here. Identical values can stand only once.

For one assay, the target named is T1, PK receptors (Rattus norvegicus, UniProt P16257).
T1 construct: Tissue preparations of rat kidney homogenate; from tissue; host or cells: rat kidney homogenate
The experiment in a line: Inhibition of [^3 H]PK11195 binding to PK receptors in rat kidney homogenate. To be noted: [^3 H]PK11195, 60 min, room temperature, Average, N-2. How it is done: The binding affinities of representative compounds of the invention are given in Table I. In this study, the compounds having the generic structure defined, supra, were tested for their ability to inhibit the binding of a known PK receptor antagonist [^3 H]PK11195, to PK receptors in a rat kidney homogenate preparation.
Tissue preparations of rat kidney homogenate were incubated with [^3 H]PK11195 and competitors (i.e. 9a-d & 23a-c, at 12 concentrations ranging from 10^-11 to 10^-6 […]) in an assay buffer. The assay mixture was incubated for 60 min. at room temperature with stirring and the resulting samples were rapidly filtered through Whatman GF/B glass-fiber filters pretreated with 0.2% protamine base and washed with cold buffer, pH 7.4. The filters were counted in a liquid scintillation counter at an efficiency of 65% for tritium saturation binding, Scatchard and competition experiments were analyzed with the iterative nonlinear least squares curve-fitting program. For comparison, for PK11195, X is Cl, Y and Z are H, and R is 2-butyl. Compounds having the lower Ki values were the most As effective inhibitors, and therefore bound the PK-receptor at the lowest concentrations. Compounds of the invention are also useful for radiation therapy, based on their specific affinity for glial tumor cells.
A word on the pKi: it is the Ki on a negative log10 scale, so that one unit is a factor of ten. High values mean a low Ki, low ones a high Ki. In turn, `CN(CCCF)C(=O)c1cc2ccccc2c(-c2ccccc2I)n1` [H H CH2 CH2 CH2 F, 1-(2-iodophenyl)-N-methyl-N-(3-fluoropropyl)-3-isoquinolinecarboxamide] showed a pKi of 9.59.
With `CN(CCCF)C(=O)c1cc2ccccc2c(-c2ccc(I)cc2)n1` [H H I CH2 CH2 CH2 F, 1-(4-iodophenyl)-N-methyl-N-(3-fluoropropyl)-3-isoquinolinecarboxamide], the pKi is 7.20.
Same read-out and setting: under `CCC(C)N(C)C(=O)c1cc2ccccc2c(-c2ccc(I)cc2)n1` (stereo not shown) [H H I CH3 CHCH2 CH3] stands 8.51 and 8.80; under `CN(CCCF)C(=O)c1cc2ccccc2c(-c2cccc(I)c2)n1` [H I H CH2 CH2 CH2 F, 1-(3-iodophenyl)-N-methyl-N-(3-fluoropropyl)-3-isoquinolinecarboxamide], 8.89.
The same measure, in the same setting: under `CCC(C)N(C)C(=O)c1cc2ccccc2c(-c2cccc(I)c2)n1` (stereo not shown) [H I H CH3 CHCH2 CH3] stands 8.55 and 8.82; under `CN(CCF)C(=O)c1cc2ccccc2c(-c2ccccc2I)n1` [I H H CH2 CH2 F, 1-(2-iodophenyl)-N-methyl-N-(2-fluoroethyl)-3-isoquinolinecarboxamide], 6.38.

The subject of a further assay is PK receptor sites.
Assay: not given
To be noted: background statement; cited from earlier work.
As to `CCC(C)N(C)C(=O)c1cc2ccccc2c(-c2ccccc2Cl)n1` (stereo not shown) [PK11195, 1-(2-chlorophenyl)-N-methyl-N-(alkyl)-3-isoquinoline carboxamide], the “binding to PK receptor sites” value was “binds strongly”.

These data come from patent US5998624A, “Haloisoquinoline carboxamide” (Emory University, priority 1998, dated 1999).
